Laboratory results: patent US6642392B1 (priority 1997, dated 2003)
Like-named read-outs stand apart in the source and are kept apart here.

Tests used:
Assay type in all cases: in vivo
Phytophthora infestans = settings: for Test D disease control rating: tomato late blight; for Test D disease control rating (100 = 100% disease control, 0 = no disease control): tomato seedlings sprayed to run-off, inoculated the following day, rating relative to controls, unmarked compounds (standard test rate)
Pyricularia oryzae = settings: for Test C disease control rating: rice blast; for Test C disease control rating (100 = 100% disease control, 0 = no disease control): rice seedlings sprayed to run-off, inoculated the following day, rating relative to controls, unmarked compounds (standard test rate)
Botrytis cinerea = assay: Test E: gray mold, preventive spray on cucumber seedlings; settings: for Test E disease control rating: gray mold on cucumber; for Test E disease control rating (100 = 100% disease control, 0 = no disease control): cucumber seedlings sprayed to run-off, inoculated the following day, rating relative to controls, unmarked compounds (standard test rate)
Method: The resulting test suspensions were then used in the following tests. Spraying these 200 ppm test suspensions to the point of run-off on the test plants is the equivalent of a rate of 500 g/ha.
The test suspension was sprayed to the point of run-off on cucumber seedlings. The following day the seedlings were inoculated with a spore suspension of Botrytis cinerea (the causal agent of gray mold on many crops) and incubated in a saturated atmosphere at 20° C. for 48 h, and moved to a growth chamber at 20° C. for 5 days, after which disease ratings were made.
(§1) Results for Tests A-E are given in Table A. In the table, a rating of 100 indicates 100% disease control and a rating of 0 indicates no disease control (relative to the controls). A dash (-) indicates no test results. ND indicates disease control not determined due to phytotoxicity.

Puccinia recondita = assay: Test B: wheat leaf rust, preventive spray on wheat seedlings; settings: for Test B disease control rating: wheat leaf rust; for Test B disease control rating (100 = 100% disease control, 0 = no disease control): wheat seedlings sprayed to run-off, inoculated the following day, rating relative to controls, unmarked compounds (standard test rate)
Method: (§2) The resulting test suspensions were then used in the following tests. […]
The test suspension was sprayed to the point of run-off on wheat seedlings. The following day the seedlings were inoculated with a spore suspension of Puccinia recondita (the causal agent of wheat leaf rust) and incubated in a saturated atmosphere at 20° C. for 24 h, and then moved to a growth chamber at 20° C. for 6 days, after which disease ratings were made.
as §1

[1] = system: Eiysiphe graminis f. sp. tritici; assay: Test A: wheat powdery mildew, preventive spray on wheat seedlings; settings: for Test A disease control rating: wheat powdery mildew; for Test A disease control rating (100 = 100% disease control, 0 = no disease control): wheat seedlings sprayed to run-off, inoculated the following day, rating relative to controls, unmarked compounds (standard test rate)
Method: as §2
The test suspension was sprayed to the point of run-off on wheat seedlings. The following day the seedlings were inoculated with a spore dust of Eiysiphe graminis f. sp. tritici, (the causal agent of wheat powdery mildew) and incubated in a growth chamber at 20° C. for 7 days, after which disease ratings were made.
as §1

[2] = 100 = 100% disease control, 0 = no control, unmarked entries (standard test concentration)
[3] = 100 = 100% disease control, 0 = no control relative to controls, unmarked entries (standard test concentration)

Structure (SMILES): CC(COc1ccc(F)cc1C#N)NC(=O)C(C#N)C(C)(C)C (mixture of isomers) [compound 40]
- Test D disease control rating (Phytophthora infestans; [2]): 0%
- Test C disease control rating (Pyricularia oryzae; [2]): 86%
- Test E disease control rating (Botrytis cinerea; [2]): 0%
- Test B disease control rating (Puccinia recondita; [2]): 0%
- Test A disease control rating [1, 3]: 21%

Structure (SMILES): CCc1ccccc1OCC(C)NC(=O)C(C#N)C(C)(C)C (mixture of isomers) [20a]
- Test D disease control rating (Phytophthora infestans; [2]): 70%
- Test C disease control rating (Pyricularia oryzae; [2]): 97%
- Test E disease control rating (Botrytis cinerea; [2]): 0%
- Test B disease control rating (Puccinia recondita; [2]): 0%
- Test A disease control rating [1, 3]: 63%

Structure (SMILES): CCC1(C(=O)NCC=Cc2cccs2)C(C)C1(Cl)Cl (stereo not shown) [compound 164]
- Test D disease control rating (Phytophthora infestans; [2]): 56%
- Test C disease control rating (Pyricularia oryzae; [2]): 72%
- Test E disease control rating (Botrytis cinerea; [2]): 7%
- Test B disease control rating (Puccinia recondita; [2]): 0%
- Test A disease control rating [1, 3]: 0%

Structure (SMILES): C[C@H](COc1ccc(Cl)cc1)NC(=O)C(C#N)C(C)(C)C (single isomer, unassigned) [7c]
- Test D disease control rating (Phytophthora infestans; [2]): 9%
- Test C disease control rating (Pyricularia oryzae; [2]): 86%
- Test E disease control rating (Botrytis cinerea; [2]): 45%
- Test B disease control rating (Puccinia recondita; [2]): 0%
- Test A disease control rating [1, 3]: 0%

Structure (SMILES): CCC1(C(=O)NC(C)COc2cc(C(C)(C)C)ccc2C#N)C(C)C1(Cl)Cl (stereo not shown) [compound 248]
- Test D disease control rating (100 = 100% disease control, 0 = no disease control) (Phytophthora infestans): 62%
- Test C disease control rating (100 = 100% disease control, 0 = no disease control) (Pyricularia oryzae): 90%
- Test E disease control rating (100 = 100% disease control, 0 = no disease control) (Botrytis cinerea): 83%
- Test B disease control rating (100 = 100% disease control, 0 = no disease control) (Puccinia recondita): 0%
- Test A disease control rating (100 = 100% disease control, 0 = no disease control) [1]: 53%

Structure (SMILES): CCC1(C(=O)NCCCn2cccc2)C(C)C1(Cl)Cl (stereo not shown) [compound 145]
- Test D disease control rating (Phytophthora infestans; [2]): 20%
- Test C disease control rating (Pyricularia oryzae; [2]): 0%
- Test E disease control rating (Botrytis cinerea; [2]): 0%
- Test B disease control rating (Puccinia recondita; [2]): 9%
- Test A disease control rating [1, 3]: 0%

Structure (SMILES): CCCc1ccccc1OCC(C)NC(=O)C1(CC)C(C)C1(Cl)Cl (mixture of isomers) [98a]
- Test D disease control rating (Phytophthora infestans; [2]): 24%
- Test C disease control rating (Pyricularia oryzae; [2]): 53%
- Test E disease control rating (Botrytis cinerea; [2]): 0%
- Test B disease control rating (Puccinia recondita; [2]): 0%
- Test A disease control rating [1, 3]: 0%

Structure (SMILES): CC(COc1c(Cl)cc(Cl)cc1Cl)NC(=O)C(C#N)C(C)(C)C (mixture of isomers) [compound 172]
- Test D disease control rating (Phytophthora infestans; [2]): 0%
- Test C disease control rating (Pyricularia oryzae; [2]): 86%
- Test E disease control rating (Botrytis cinerea; [2]): 95%
- Test B disease control rating (Puccinia recondita; [2]): 0%
- Test A disease control rating [1, 3]: 0%

Structure (SMILES): C=CC(C)(CC)C(C#N)C(=O)NC(C)COc1cc(Cl)ccc1F (mixture of isomers) [compound 297]
- Test D disease control rating (100 = 100% disease control, 0 = no disease control) (Phytophthora infestans): 46%
- Test C disease control rating (100 = 100% disease control, 0 = no disease control) (Pyricularia oryzae): 100%
- Test E disease control rating (100 = 100% disease control, 0 = no disease control) (Botrytis cinerea): 0%
- Test B disease control rating (100 = 100% disease control, 0 = no disease control) (Puccinia recondita): 0%
- Test A disease control rating (100 = 100% disease control, 0 = no disease control) [1]: 0%

Structure (SMILES): CC(COc1cc(F)ccc1C#N)NC(=O)C(C#N)C(C)(C)C (mixture of isomers) [compound 41]
- Test D disease control rating (Phytophthora infestans; [2]): 66%
- Test C disease control rating (Pyricularia oryzae; [2]): 97%
- Test E disease control rating (Botrytis cinerea; [2]): 47%
- Test B disease control rating (Puccinia recondita; [2]): 0%
- Test A disease control rating [1, 3]: 62%

Structure (SMILES): CCC1(C(=O)NC(C)COn2c(C#N)cc(Br)c2C)C(C)C1(Cl)Cl (mixture of isomers) [compound 141]
- Test D disease control rating (Phytophthora infestans; [2]): 84%
- Test C disease control rating (Pyricularia oryzae; [2]): 74%
- Test E disease control rating (Botrytis cinerea; [2]): 0%
- Test B disease control rating (Puccinia recondita; [2]): 68%
- Test A disease control rating [1, 3]: 38%

Structure (SMILES): CC(C)C(C#N)C(=O)NC(C)C(Oc1cc(F)ccc1C#N)c1ccccc1 (mixture of isomers) [compound 289]
- Test D disease control rating (100 = 100% disease control, 0 = no disease control) (Phytophthora infestans): 45%
- Test C disease control rating (100 = 100% disease control, 0 = no disease control) (Pyricularia oryzae): 90%
- Test E disease control rating (100 = 100% disease control, 0 = no disease control) (Botrytis cinerea): 0%
- Test B disease control rating (100 = 100% disease control, 0 = no disease control) (Puccinia recondita): 0%
- Test A disease control rating (100 = 100% disease control, 0 = no disease control) [1]: 0%

Structure (SMILES): CC(COn1c(Cl)c(Cl)c(Cl)c1C#N)NC(=O)C(C#N)C(C)(C)C (mixture of isomers) [compound 52]
- Test D disease control rating (Phytophthora infestans; [2]): 81%
- Test C disease control rating (Pyricularia oryzae; [2]): 0%
- Test E disease control rating (Botrytis cinerea; [2]): 0%
- Test B disease control rating (Puccinia recondita; [2]): 86%
- Test A disease control rating [1, 3]: 71%

Structure (SMILES): CCC1(C(=O)NC(C)COc2c(F)cccc2F)C(C)C1(Cl)Cl (mixture of isomers) [105a]
- Test D disease control rating (Phytophthora infestans; [2]): 0%
- Test C disease control rating (Pyricularia oryzae; [2]): 53%
- Test E disease control rating (Botrytis cinerea; [2]): 55%
- Test B disease control rating (Puccinia recondita; [2]): 0%
- Test A disease control rating [1, 3]: 0%

Structure (SMILES): CCC(C)c1ccccc1OCC(C)NC(=O)C(C#N)C(C)(C)C (mixture of isomers) [compound 306]
- Test D disease control rating (100 = 100% disease control, 0 = no disease control) (Phytophthora infestans): 0%
- Test C disease control rating (100 = 100% disease control, 0 = no disease control) (Pyricularia oryzae): 99%
- Test E disease control rating (100 = 100% disease control, 0 = no disease control) (Botrytis cinerea): 94%
- Test B disease control rating (100 = 100% disease control, 0 = no disease control) (Puccinia recondita): 67%
- Test A disease control rating (100 = 100% disease control, 0 = no disease control) [1]: 0%

Structure (SMILES): CC(C=Cc1ccccc1F)NC(=O)C(C#N)C(C)(C)C (mixture of isomers) [compound 308]
- Test D disease control rating (100 = 100% disease control, 0 = no disease control) (Phytophthora infestans): 45%
- Test C disease control rating (100 = 100% disease control, 0 = no disease control) (Pyricularia oryzae): 100%
- Test E disease control rating (100 = 100% disease control, 0 = no disease control) (Botrytis cinerea): 0%
- Test B disease control rating (100 = 100% disease control, 0 = no disease control) (Puccinia recondita): 28%
- Test A disease control rating (100 = 100% disease control, 0 = no disease control) [1]: 86%

Structure (SMILES): C[C@H](COc1ccc(Cl)c(Cl)c1)NC(=O)C(C#N)C(C)(C)C (single isomer, unassigned) [181b]
- Test D disease control rating (Phytophthora infestans; [2]): 0%
- Test C disease control rating (Pyricularia oryzae; [2]): 74%
- Test E disease control rating (Botrytis cinerea; [2]): 90%
- Test B disease control rating (Puccinia recondita; [2]): 0%
- Test A disease control rating [1, 3]: 37%

Structure (SMILES): CCC1(C(=O)NC(C)COc2cc(Cl)ccc2Cl)C(C)C1(Cl)Cl (stereo not shown) [compound 113]
- Test D disease control rating (Phytophthora infestans; tested at 40 ppm): 19%
- Test C disease control rating (Pyricularia oryzae; tested at 40 ppm): 97%
- Test E disease control rating (Botrytis cinerea; tested at 40 ppm): 0%
- Test B disease control rating (Puccinia recondita; tested at 40 ppm): 0%
- Test A disease control rating ([1]; tested at 40 ppm): 0%

Structure (SMILES): C[C@H](COc1cccc(Br)c1)NC(=O)C(C#N)C(C)(C)C (single isomer, unassigned) [9b]
- Test D disease control rating (Phytophthora infestans; [2]): 28%
- Test C disease control rating (Pyricularia oryzae; [2]): 99%
- Test E disease control rating (Botrytis cinerea; [2]): 0%
- Test B disease control rating (Puccinia recondita; [2]): 68%
- Test A disease control rating [1, 3]: 62%

Structure (SMILES): CC(COc1cccc(Cl)c1)NC(=O)C(C#N)C(C)(C)C (single isomer, unassigned) [6a]
- Test D disease control rating (Phytophthora infestans; [2]): 0%
- Test C disease control rating (Pyricularia oryzae; [2]): 74%
- Test E disease control rating (Botrytis cinerea; [2]): 0%
- Test B disease control rating (Puccinia recondita; [2]): 0%
- Test A disease control rating [1, 3]: 0%

Structure (SMILES): CC(COc1ccc(Br)cc1F)NC(=O)C(C#N)C(C)(C)C (mixture of isomers) [compound 38]
- Test D disease control rating (Phytophthora infestans; [2]): 0%
- Test C disease control rating (Pyricularia oryzae; [2]): 53%
- Test E disease control rating (Botrytis cinerea; [2]): 22%
- Test B disease control rating (Puccinia recondita; [2]): 28%
- Test A disease control rating [1, 3]: 0%

Structure (SMILES): CCC1(C(=O)NC(C)COc2c(C#N)cccc2C(F)(F)F)C(C)C1(Cl)Cl (mixture of isomers) [compound 134]
- Test D disease control rating (Phytophthora infestans; [2]): 30%
- Test C disease control rating (Pyricularia oryzae; [2]): 0%
- Test E disease control rating (Botrytis cinerea; [2]): 0%
- Test B disease control rating (Puccinia recondita; [2]): 0%
- Test A disease control rating [1, 3]: 0%

Structure (SMILES): CC(COc1cccc(C(F)(F)F)c1C#N)NC(=O)C(C#N)C(C)(C)C (mixture of isomers) [compound 47]
- Test D disease control rating (Phytophthora infestans; [2]): 52%
- Test C disease control rating (Pyricularia oryzae; [2]): 53%
- Test E disease control rating (Botrytis cinerea; [2]): 0%
- Test B disease control rating (Puccinia recondita; [2]): 0%
- Test A disease control rating [1, 3]: 0%
